Measurements: patent US12643899B2, “Antiviral agents, uses thereof and methods for their preparation” (The University of British Columbia, priority 2020, dated 2026)

What was measured:
[1] = test system: ZIKV; experiment: NS1 and dsRNA in ZIKV-infected brain organoids; format: cell-based, Zika virus; conditions: 10 μM, 69 hours, MOI 1
Experimental: FIG. 17 is a schematic showing the general method 20 used in Example 6. Referring to FIG. 17, following growth of the brain organoids in STEMdiff™ media 22 (4 organoids/well), the media was aspirated 24. Then, 500 μL ZIKV at the desired MOI in fresh media was added 26 and the brain organoids incubated at 37° C. for 3 hours with gentle shaking 28. The brain organoids were then washed with 2×1 mL PBS 30, and fresh media and CA or cladoniamide C (CC) added to the desired concentration 32 prior to incubation for the desired time at 37° C. 34. The supernatant was collected and frozen at −86° C. 36 prior to analysis and the brain organoids transferred to an Eppendorf with paraformaldehyde for electron microscopy 38.
FIG. 18 is a plot showing the anti-ZIKV activity of cladoniamide A (incubation with 1 μM CA for 72 hours; 2 biological replicates, each with 4 organoids/well) using four brain organoid systems. There was a greater than 4-log reduction in extracellular ZIKV titer when treated with CA. […] FIGS. 20 and 21 show plots showing the anti-ZIKV activity of CA and CC (incubation with 10 μM CA or CC for 69 hours, MOI 1; 4 technical replicates as there were 4 organoids/[…]).

[2] = test system: ZIKV; experiment: ZIKV viral dsRNA imaging (Cellomics ArrayScan VTI) in A549 cells; format: cell-based, Zika virus; conditions: 15 μM, 1 h pre-treatment, MOI 1, 48 h
[3] = test system: ZIKV; experiment: ZIKV infectivity by semisolid overlay plaque assay after pre-treatment of A549 and U87 MG cells; format: cell-based, Zika virus; conditions: CD 15 μM, A549 and U87 MG cells, FIG. 3
[4] = test system: DENV; experiment: Activity against DENV (summary statement, method not described); format: cell-based, dengue virus
[5] = test system: SARS-CoV-2; experiment: SARS-CoV-2 intracellular viral RNA and nucleocapsid protein in Caco-2 cells; format: cell-based; conditions: Human Caco-2 cells, 3 hours pre-treatment
[6] = test system: ZIKV; experiment: Secreted NS1 (sNS1) ELISA, ZIKV-infected A549 cells; format: cell-based, Zika virus; conditions: 24 h pre-treatment, MOI 1.0, 2 d
Experimental: Error bars represent SD among 2 biological replicates.
Cultured A549 cells were treated with various concentrations of CA or PF-429242 for 24 h before being washed with PBS and inoculated with ZIKV (ZIKV strain VR 1843, Puerto Rico, 2015; ATCC) at MOI 1.0 for 1 h. Following the removal of the inoculum, cells were incubated in fresh media for 2 d before the supernatant was collected, clarified, and secreted NS1 protein abundance was measured by an ELISA kit (BioFront Technologies) according to the manufacturer's instructions. Curve fitting was performed in Igor Pro (WaveMetrics) using a hyperbolic fit algorithm (FIG. 4; upper and middle plots) and IC50 and TI values obtained. IC50 and TI values were also obtained for CA via plaque assay (PFU; FIG. 4, lower plot). FIG. 4 (upper plot) is an ED50 curve for the PF inhibitor based on the detection of secreted Non-Structural protein 1 (sNS1), secreted viral biomarker. sNS1 was detected using an Elisa test (commercially available). FIG. 4 (middle plot) is an ED50 curve for CA based on the detection of secreted Non-Structural protein 1 (sNS1), secreted viral biomarker. sNS1 was detected using an Elisa test (commercially available).

[7] = test system: A549 cells; experiment: MTS cytotoxicity assay in A549 cells; format: cell-based, human; conditions: 48 h
Experimental: An MTS assay was performed to determine the cytotoxicity concentration 50% (CC50) of cladoniamide A (CA) in human A549 cells, a cell line from human lung carcinoma. Various concentrations of CA were added to cultured A549 cells and incubated (37° C., 5% CO2) for 48 h. Cell viability was then measured by an MTS assay kit (CellTiter 96™ Aqueous One Solution cell proliferation assay, Promega) according to the manufacturer's instructions. Curve fitting was performed in Igor Pro (WaveMetrics) using a hyperbolic fit algorithm (FIG. 1). The CC50 of CA in A549 cells was determined to be 54±5 μM. An MTS assay was also performed to determine the CC50 of CA in human U87 MG cells, a cell line from human brain. Various concentrations of CA were added to cultured U87 MG cells and incubated (37° C., 5% CO2) for 48 h. Cell viability was then measured by an MTS assay kit (CellTiter 96 Aqueous One Solution cell proliferation assay, Promega) according to the manufacturer's instructions. Curve fitting was performed in Igor Pro (WaveMetrics) using a hyperbolic fit algorithm (FIG. 2).

## COc1c2n(c3ccccc13)[C@]1(O)C(=O)N(C)C(=O)[C@]1(O)c1c-2[nH]c2ccccc12 [CC, (11S,15R)-11,15-dihydroxy-23-methoxy-13-methyl-3,13,16-triazahexacyclo[14.7.0.0^2,10.0^4,9.0^11,15.0^17,22]tricosa-1(23),2(10),4,6,8,17,19,21-octaene-12,14-dione]
[1]
  anti-ZIKV activity in brain organoids (NS1, dsRNA): showed anti-ZIKV activity

## CNC(=O)[C@]1(O)C(=O)c2c([nH]c3ccc(Cl)cc23)-c2c(OC)c3ccccc3n21 [CD, (12R)-7-chloro-12-hydroxy-20-methoxy-N-methyl-11-oxo-3,13-diazapentacyclo[11.7.0.0^2,10.0^4,9.0^14,19]icosa-1(20),2(10),4(9),5,7,14,16,18-octaene-12-carboxamide]
[2]
  activity against ZIKV (viral dsRNA): did not show any inhibitory effect
[3]
  inhibitory effect on production of infectious ZIKV virions: did not show any inhibitory effect
[4]
  activity against DENV: no activity
[5]
  antiviral effect against SARS-CoV-2: no antiviral effect

## CNC(=O)[C@]1(O)C(=O)c2c([nH]c3ccc(Cl)cc23)-c2c(OC)c3cc(Cl)ccc3n21 [CE, (12R)-7,17-dichloro-12-hydroxy-20-methoxy-N-methyl-11-oxo-3,13-diazapentacyclo[11.7.0.0^2,10.0^4,9.0^14,19]icosa-1(20),2(10),4(9),5,7,14(19),15,17-octaene-12-carboxamide]
[2]
  activity against ZIKV (viral dsRNA): did not show any inhibitory effect

## CNC(=O)[C@@]1(O)C(=O)n2c(c(OC)c3ccccc32)-c2[nH]c3ccc(Cl)cc3c21 [CF, (11R)-7-chloro-11-hydroxy-20-methoxy-N-methyl-12-oxo-3,13-diazapentacyclo[11.7.0.0^2,10.0^4,9.0^14,19]icosa-1(20),2(10),4(9),5,7,14,16,18-octaene-11-carboxamide]
[2]
  activity against ZIKV (viral dsRNA): did not show any inhibitory effect

## CCN(CC)Cc1ccc(C(=O)N(CCc2ccccc2OC)[C@@H]2CCNC2)cc1 [PF, PF-429242, reference compound]
[6]
  IC50: 13 µM
[7]
  CC50: 69 µM
